The values that follow are results of earlier work, collected in patent US9446052B2, “Composition for prevention of nausea or vomiting” (SAMYANG BIOPHARMACEUTICALS CORPORATION, priority 2010, dated 2016).

Structures are written as SMILES.

For the series the following is noted: pH 6-7.5.

In the case of `Cc1nccn1CC1CCc2c(c3ccccc3n2C)C1=O` (stereo not shown) [ondansetron], the Solubility in water entry is “not soluble”.
